Source: the NIST ThermoML archive (doi:10.1016/j.fluid.2016.05.032)
± gives the expanded uncertainty stated by the source.

Settings: Liquid, Closed cell (Static) method

Row | Structure (SMILES) | vapor or sublimation pressure (345.15 K) [kPa] | vapor or sublimation pressure (350.15 K) [kPa] | vapor or sublimation pressure (355.15 K) [kPa] | vapor or sublimation pressure (360.15 K) [kPa] | vapor or sublimation pressure (365.15 K) [kPa] | vapor or sublimation pressure (320.15 K) [kPa] | further results
1 | Cc1ccccc1C [1,2-dimethylbenzene] | 9.182 ± 0.061 | 11.27 ± 0.074 | 13.73 ± 0.081 | 16.62 ± 0.095 | 20 ± 0.11 |  | 
2 | Cc1cccc(C)c1 [1,3-dimethylbenzene] | 11 ± 0.058 | 13.44 ± 0.07 | 16.32 ± 0.083 | 19.68 ± 0.098 | 23.59 ± 0.1 |  | 
3 | Cc1ccc(C)cc1 [1,4-dimethylbenzene] | 11.39 ± 0.061 | 13.9 ± 0.071 | 16.85 ± 0.085 | 20.3 ± 0.095 | 24.3 ± 0.1 |  | 
4 | CC(O)COC(C)COC(C)CO (stereo not given) [2-[2-(2-hydroxypropoxy)propoxy]-1-propanol] |  | 0.039 ± 0.006 |  |  |  |  | vapor or sublimation pressure (357.15 K): 0.063 ± 0.016 kPa; vapor or sublimation pressure (364.15 K): 0.098 ± 0.009 kPa; vapor or sublimation pressure (371.15 K): 0.15 ± 0.018 kPa; vapor or sublimation pressure (378.15 K): 0.224 ± 0.009 kPa
5 | CCc1ccccc1 [ethylbenzene] |  |  |  |  |  | 4.076 ± 0.038 | vapor or sublimation pressure (326.15 K): 5.41 ± 0.047 kPa; vapor or sublimation pressure (332.15 K): 7.093 ± 0.052 kPa; vapor or sublimation pressure (338.15 K): 9.194 ± 0.058 kPa; vapor or sublimation pressure (344.15 K): 11.79 ± 0.071 kPa
6 | Cc1ccccc1 [toluene] |  |  |  |  |  | 10.77 ± 0.052 | vapor or sublimation pressure (315.15 K): 8.622 ± 0.044 kPa; vapor or sublimation pressure (325.15 K): 13.34 ± 0.059 kPa; vapor or sublimation pressure (330.15 K): 16.4 ± 0.071 kPa; vapor or sublimation pressure (335.15 K): 20.02 ± 0.08 kPa
